We go through one compound from publication PMC4091635 (Bioorganic & medicinal chemistry, 2014).

Molecules are shown by their SMILES.

This assay concerns transformed PSC (human pancreatic stellate cells). As to the kind of experiment: AlamarBlue Cell Viability Assay, PSC proliferation. Format: cell-based. Conditions: mean of at least three independent experiments, NE: No effect. (Alamar Blue is a resazurin reagent that responds to reducing activity.)

On to `COc1cc(OC)c2c(=O)cc(-c3ccc(O)cc3)oc2c1` [Compound 6, 2-(4-Hydroxy-phenyl)-5,7-dimethoxy-chromen-4-one], for which the “Inhibitory Effect (%) 20 μM” value is “no significant antiproliferative effect”.
